Data from PMC12595617, “Investigating the potential role of metabolic resistance genes in conferring cross-resistance to pyrethroids and polycyclic aromatic hydrocarbon pollutants in the major malaria vector Anopheles coluzzii” (BMC Genomics, 2025).
“And” between values parts separate entries of the source, which are not always exact repeats. Identical values can stand only once. Like-named read-outs stand apart in the source and are kept apart here.

Experiments:
[1] = system: Ngousso microsomes; experiment: Microsomal P450 activity with model probe substrate DEF, Ngousso; type: biochemical, Anopheles coluzzii; conditions: 10 µM DEF, 0.05 µM P450, read for 15 min
Protocol: (§1) P450 activity was determined in the prepared microsomes from both Auyo and Ngousso strains using diethoxyfluorescein (DEF) as the model fluorogenic substrate using the methods earlier described. Briefly, the enzyme-buffer mix consisted of 0.05 µM of cytochrome P450 (microsomes), 50 mM potassium phosphate buffer, pH 7.4, 0.5 µM cytochrome b5 and 10 µM DEF. To initiate the reactions in a 96-well plates (Thermo Labsystems, Basingstoke, UK), a NADPH ([…]) regeneration mix (consisting of 1mM glucose-6-phosphate, 0.1 M NADP+, 0.25mM magnesium chloride, IU/ml glucose-6-phosphate dehydrogenase and 50 mM potassium phosphate buffer pH 7.4) was added in the positive replicates whereas the same buffer with no NADPH was added in the negative wells. Using the excitation (482 nm) and emission (520 nm) wavelengths of DEF, the […] was read for 15 min, and the relative fluorescence unit per min per picomole of the P450 (RFU/min/pmol of P450) was determined.

[2] = system: Auyo microsomes; experiment: Microsomal P450 activity with model probe substrate DEF, Auyo; type: biochemical, Anopheles coluzzii; conditions: 10 µM DEF, 0.05 µM P450, read for 15 min
Protocol: as §1

[3] = system: microsomes prepared from pyrethroid-resistant Anopheles coluzzii (Auyo); conditions: Auyo (field-resistant) larval microsomes, 0.05 µM P450, 20 µM PAH, 2 h, 30 °C, +NADPH vs -NADPH, mean ± SD of three replicates
Protocol: To compare the metabolic activity of the microsomes and the recombinant cytochrome P450s towards PAH metabolism assays were conducted side by side as described earlier. The NADPH regeneration mixture (consisting of 0.1 M NADP+, 50mM potassium phosphate buffer, pH 7.4, 1 mM glucose-6-phosphate, 0.25 mM magnesium chloride and 1U/ml glucose-6-phosphate dehydrogenase) was used in the positive replicates. For the negatives, the same buffer with no added NADP + was used. Enzyme-buffer mix comprised of 0.05 µM recombinant P450 or microsome, 0.4 µM cytochrome b5, 50 mM potassium phosphate buffer pH 7.4 and 20 µM of the PAH substrates. To initiate the reactions, regeneration mixture was added to the enzyme-buffer mix in a 1:1 ratio (total of 200 µl) following activation for 5 min at 30 °C and 1200 rpm shaking. The reaction was run for 2 h at 30 °C with 200 rpm shaking. To stop the reaction, 200 µl of ice-cold High Performance Liquid Chromatography (HPLC) grade acetonitrile was added, followed by additional shaking for 5 min to precipitate the proteins. The mixture was kept on ice for 10 min before centrifuging at 16,000xg for 20 min. […]
(§2) Using the Agilent HPLC 1200 infinity series, analysis of the PAHs metabolism was conducted. The HPLC conditions consisted of mobile phases of HPLC grade acetonitrile and water in the ratio of 80/20 and detected at a wavelength of 254 nm.

[4] = system: recombinant CYP6P3; conditions: recombinant CYP6P3, 0.05 µM P450, 20 µM PAH, 2 h, 30 °C, +NADPH vs -NADPH
Protocol: (§3) The recombinant P450s used in this study were acquired from the enzyme characterization group (ECG) leader, Dr. Mark J.I. Paine of the Vector Biology Department, Liverpool School of Tropical Medicine. All the P450s were expressed from field-resistant populations of An. gambiae except for CYP6P9a, which was expressed from An. funestus. The heterologous expression of the P450s was conducted according to the previously described approaches. Briefly, P450s were expressed by using ompA and pelB signal sequences to direct P450 and An. gambiae CPR (AgCPR), respectively, to the inner membrane of E. coli a functional monooxygenase. The P450 sequences were amplified from cDNA and fused to the ompA signal peptides in simple PCR reactions. This is followed by ligation of the digested fragments into linearized expression vector pCWori+, thereby creating a construct pB13:ompA + 2-P450. Competent JM109 cells were co-transformed with plasmids pB13:ompA + 2-P450 and pACYC-AgCPR for the expression of functional P450 and An. gambiae CPR, respectively. Colonies carrying the two plasmids as confirmed by the colony PCR are used for a 12–14 h starter culture overnight. Typically, 0.2 L cultures were supplemented with 2 mL from the starter cultures and incubated at 37 °C and 200 rpm shaking while the absorbance at 600 nm was being monitored. When the OD reached 0.6–0.8, the cultures were cooled down to 25 °C for 30 min with shaking at 150 rpm. Induction with 1 mM isopropyl β-D-1-thiogalactopyranoside (IPTG) and 0.5 mM 5-aminolaevulinic acid (ALA) was conducted. Determinations of the P450 content and CPR activity were conducted using the procedure of [61] and [60], respectively.
(§4) To compare the metabolic activity of the microsomes and the recombinant cytochrome P450s towards PAH metabolism assays were conducted side by side as described earlier. The NADPH regeneration mixture (consisting of 0.1 M NADP+, 50mM potassium phosphate buffer, pH 7.4, 1 mM glucose-6-phosphate, 0.25 mM magnesium chloride and 1U/ml glucose-6-phosphate dehydrogenase) was used in the positive replicates. For the negatives, the same buffer with no added NADP + was used. Enzyme-buffer mix comprised of 0.05 µM recombinant P450 or microsome, 0.4 µM cytochrome b5, 50 mM potassium phosphate buffer pH 7.4 and 20 µM of the PAH substrates. To initiate the reactions, regeneration mixture was added to the enzyme-buffer mix in a 1:1 ratio (total of 200 µl) following activation for 5 min at 30 °C and 1200 rpm shaking. The reaction was run for 2 h at 30 °C with 200 rpm shaking. To stop the reaction, 200 µl of ice-cold High Performance Liquid Chromatography (HPLC) grade acetonitrile was added, followed by additional shaking for 5 min to precipitate the proteins. The mixture was kept on ice for 10 min before centrifuging at 16,000xg for 20 min. The supernatants were filtered through 0.45 μm PTFE filters (ThermoFisher Scientific, MA, USA) and filtrate transferred to HPLC vials for onward analysis.
as §2

[5] = system: recombinant CYP6Z3
Protocol: as §3, §4, §2

[6] = system: recombinant CYP6Z2
Protocol: as §3, §4, §2

[7] = system: CYP9J5; type: in vitro ADME, An. gambiae; conditions: Anopheles gambiae, 2 h, 20 µM, pH 7.4
Protocol: (§5) To compare the metabolic activity of the microsomes and the recombinant cytochrome P450s towards PAH metabolism assays were conducted side by side as described earlier [38, 43]. The NADPH regeneration mixture (consisting of 0.1 M NADP+, 50mM potassium phosphate buffer, pH 7.4, 1 mM glucose-6-phosphate, 0.25 mM magnesium chloride and 1U/ml glucose-6-phosphate dehydrogenase) was used in the positive replicates. For the negatives, the same buffer with no added NADP + was used. Enzyme-buffer mix comprised of 0.05 µM recombinant P450 or microsome, 0.4 µM cytochrome b5, 50 mM potassium phosphate buffer pH 7.4 and 20 µM of the PAH substrates. To initiate the reactions, regeneration mixture was added to the enzyme-buffer mix in a 1:1 ratio (total of 200 µl) following activation for 5 min at 30 °C and 1200 rpm shaking. The reaction was run for 2 h at 30 °C with 200 rpm shaking. […]
(§6) Using the Agilent HPLC 1200 infinity series, analysis of the PAHs metabolism was conducted. The HPLC conditions consisted of mobile phases of HPLC grade acetonitrile and water in the ratio of 80/20 and detected at a wavelength of 254 nm. […] Percentage depletions for each compound were calculated in both the microsomal and recombinant P450 studies. […]

[8] = system: CYP9K1; type: in vitro ADME, An. gambiae; conditions: Anopheles gambiae, 2 h, 20 µM, pH 7.4
Protocol: as §5, §6

[9] = system: Auyo microsomes; experiment: Fluorene turnover assay using microsomes; type: in vitro ADME, Anopheles coluzzii; conditions: fluorene 30 µM, run time 15-150 min
Protocol: Because of the higher percentage of depletion observed in the Auyo microsomal metabolism of fluorene, it was chosen to be analysed further for its turnover and kinetic studies. To understand the turnover rates of the fluorene depletions, reaction run time was varied between 15 and 150 min. Specific points used were 15, 30, 45, 60, 90, 120 and 150 min while the fluorene concentration was maintained at 30 µM in all these time points.

[10] = system: CYP6P4; type: in vitro ADME, An. gambiae; conditions: Anopheles gambiae, 2 h, 20 µM, pH 7.4
Protocol: as §5, §6

[11] = system: Auyo microsomal P450; experiment: in vitro; type: in vitro ADME, Anopheles coluzzii
Protocol: For the determination of steady-state kinetic parameters, assays were conducted for 30 min with 0.05 µM microsomal P450 while varying the concentrations of fluorene (0–600 µM). Kinetics plot of velocity against the substrate concentrations was made using the least squares non-linear regression in GraphPad Prism 6.03 Software (GraphPad Inc., La Jolla, CA, USA) that fits into the canonical Michaelis-Menten model as previously described for pyrethroid insecticides.

[12] = system: all the recombinant P450s used in this study (CYPs 6M2, 6Z2, 6Z3, 9J5, 6P3, 6P4, 6P5, CYP9K1, CYP6P9a); experiment: In vitro metabolism of PAHs with the whole recombinant P450 panel; type: in vitro ADME, An. gambiae / An. funestus; conditions: Anopheles gambiae; Anopheles funestus (CYP6P9a), 2 h, 20 µM, pH 7.4
Protocol: as §5, §6

CCOc1ccc2c(c1)Oc1cc(OCC)ccc1C21OC(=O)c2ccccc21 [DEF, diethoxyfluorescein]
DEF activity [1]: 4.4 RFU/min/pmole P450
DEF activity [2]: 4.9 RFU/min/pmole P450

c1ccc2c(c1)-c1cccc3cccc-2c13 [fluoranthene]
percentage depletion [3]: 22.8 ± 5.2%
percentage depletion [4]: more than 40%
metabolic activity (in words) ([5]; recombinant CYP6Z3): strong metabolic activity
metabolic activity (in words) ([6]; recombinant CYP6Z2): strong metabolic activity

c1ccc2c(c1)Cc1ccccc1-2 [fluorene]
percentage depletion [7]: 7.7%
percentage depletion [8]: 8.5%
Turnover [9]: 37.016 min⁻¹ and 37.02 min⁻¹
percentage depletion [10]: 9.3%
Km at 30 min ([11]; Anopheles coluzzii): 58.7 µM
Catalytic rate (Kcat) ([11]; Auyo microsomes, 0.05 µM microsomal P450, 30 min, fluorene 0–600 µM): 0.06993 s⁻¹ and 0.07 ± 0.00733 s⁻¹
catalytic efficiency ([11]; Auyo microsomes, fluorene): 0.0715 ± 0.026 min⁻¹ µM⁻¹
metabolic activity (in words) [5]: strong metabolic activity
metabolic activity (in words) [6]: strong metabolic activity

c1ccc2ccccc2c1 [naphthalene]
percentage depletion [12]: < 10%
